The values below come from article PMC5175396, “Cytotoxicity of Plumbagin, Rapanone and 12 other naturally occurring Quinones from Kenyan Flora towards human carcinoma cells” (BMC Pharmacology & Toxicology, 2016).

Series [1] concerns A549 human non-small cell lung cancer (NSCLC) cell line. Put plainly: Neutral red (NR) uptake cytotoxicity assay, A549. Format: cell-based. To be noted: for IC50: neutral red assay, 72 h incubation; for selectivity index A549: IC50 in CRL2120 normal fibroblasts divided by IC50 in A549. From the text: (§1) Six human cancer cell lines and one normal cell line were used in this study. They included A549 human non-small cell lung cancer (NSCLC) cell line, obtained from the Institute for Fermentation, Osaka (IFO, Japan) and provided by Prof. Dr. Tansu Koparal (Anadolu University, Eskisehir, Turkey), SPC212 human mesothelioma cell line obtained from American Type Culture Collection (ATCC) and provided by Dr. Asuman Demiroğlu Zergeroğlu (Gebze Technical University, Kocaeli, Turkey), DLD-1 colorectal adenocarcinoma cell lines obtained from ATCC (CCL-221), Caco2 colorectal adenocarcinoma cells (ATCC, HTB-37) obtained from the ŞAP Institute of Turkey (Ankara), HepG2 hepatocarcinoma cells (ATCC, HB-8065) and MCF-7 breast adenocarcinoma cells (ATCC, HTB-22) were provided by Prof. Dr. Tansu Koparal (Anadolu University, Eskisehir, Turkey). The normal CRL2120 human skin fibroblasts were obtained from ATCC [CCD1094Sk (ATCC, CRL-2120)]. The cells were maintained as a monolayer in DMEM medium (Sigma-aldrich, Munich, Germany) medium supplemented with 10% fetal calf serum and 1% penicillin (100 U/mL)-streptomycin (100 μg/mL) in a humidified 5% CO2 atmosphere at 37 °C.
(§2) The cytotoxicity of samples was performed by NR uptake assay as previously described. This method is based on the ability of viable cells to incorporate and bind the supravital dye NR in the lysosomes. […] Briefly, cells were detached by treatment with 0.25% trypsin/EDTA (Invitrogen) and an aliquot of 1 × 10^4 cells was placed in each well of a 96-well cell culture plate (Thermo Scientific, Germany) in a total volume of 200 μL. The cells were allowed to attach overnight and subsequently treated with different concentrations of the 14 compounds. Each of the studied samples was immediately added in varying concentrations in additional 100 μL of culture medium to obtain a total volume of 200 μL/well. After 72 h incubation in humidified 5% CO2 atmosphere at 37 °C, the medium was removed and 200 μL fresh medium containing 50 μg/mL NR was added to each well and incubation continued for an additional 3 h at 37 °C in 5% CO2 atmosphere. The dye medium was then removed and each well was then washed rapidly with 200 μL phosphate buffer saline (PBS) followed by addition of 200 μL of acetic acid-water-ethanol in water (1:49:50). The plates were kept for 15 min at room temperature to extract the dye and then shaken for a few minutes on a GFL 3012 shaker (Gesellschaft für Labortechnik mbH, Burgwedel, Germany). Absorbance was measured on ELx 808 Ultra Microplate Reader (Biotek) equipped with a 540 nm filter. Each assay was done at least three times, with three replicates each. The viability was evaluated based on a comparison with untreated cells. The IC50 values represent the sample’s concentrations required to inhibit 50% of cell proliferation and were calculated from a calibration curve by linear regression using Microsoft Excel.

In series [2] the test system is SPC212 human mesothelioma cell line. Kind of series: Neutral red (NR) uptake cytotoxicity assay, SPC212. Format: cell-based. The conditions noted are these: for IC50: Homo sapiens, 72 h, neutral red assay, 72 h incubation, read-out: IC50 SPC212; for selectivity index SPC212: IC50 in CRL2120 normal fibroblasts divided by IC50 in SPC212.
Source text: as §1
as §2, with “lysosomes. The procedure is cheaper and more sensitive than other cytotoxicity tests.” for “lysosomes.”

Series [3] relates to DLD-1 colorectal adenocarcinoma cell lines. Put plainly: Neutral red (NR) uptake cytotoxicity assay, DLD-1. The series is classed as cell-based, human. To be noted: for IC50: Homo sapiens, DLD-1, neutral red assay, 72 h incubation, read-out: IC50 DLD-1; for selectivity index DLD-1: IC50 in CRL2120 normal fibroblasts divided by IC50 in DLD-1.
Source text: as §1
as §2, with “lysosomes. The procedure is cheaper and more sensitive than other cytotoxicity tests.” for “lysosomes.”

Series [4] deals with Caco2 colorectal adenocarcinoma cells. Put plainly: Neutral red (NR) uptake cytotoxicity assay, Caco-2. Format: cell-based, human. To be noted: Homo sapiens, Caco-2; neutral red assay, 72 h incubation.
Source text: as §1
as §2, with “lysosomes. The procedure is cheaper and more sensitive than other cytotoxicity tests.” for “lysosomes.”

The test system of series [5] is MCF-7 breast adenocarcinoma cells. Put plainly: Neutral red (NR) uptake cytotoxicity assay, MCF-7. The conditions noted are these: for IC50: Homo sapiens, MCF7, 72 h, neutral red assay, 72 h incubation, read-out: IC50 MCF-7; for selectivity index MCF-7: IC50 in CRL2120 normal fibroblasts divided by IC50 in MCF-7. Format: cell-based, human.
Source text: as §1
as §2, with “lysosomes. The procedure is cheaper and more sensitive than other cytotoxicity tests.” for “lysosomes.”

Series [6] deals with HepG2 hepatocarcinoma cells. Put plainly: Neutral red (NR) uptake cytotoxicity assay, HepG2. The series is classed as cell-based, human. To be noted: for IC50: Homo sapiens, HepG2, neutral red assay, 72 h incubation, read-out: IC50 HepG2; for selectivity index HepG2: IC50 in CRL2120 normal fibroblasts divided by IC50 in HepG2.
Source text: as §1
as §2, with “lysosomes. The procedure is cheaper and more sensitive than other cytotoxicity tests.” for “lysosomes.”

In series [7] the test system is normal CRL2120 human skin fibroblasts. Put plainly: Neutral red (NR) uptake cytotoxicity assay, normal CRL2120 fibroblasts. The series is classed as cell-based. The conditions noted are these: Skin fibroblast, 72 h incubation.
Source text: as §1
as §2, with “lysosomes. The procedure is cheaper and more sensitive than other cytotoxicity tests.” for “lysosomes.”

The subject of series [8] is six tested cancer cell lines (A549, SPC212, DLD-1, Caco-2, MCF-7, HepG2). Put plainly: Neutral red uptake assay, statements over the six tested cancer cell lines. Format: cell-based, human. To be noted: for tested cancer cell lines in which recordable IC50 values were obtained: out of six cancer cell lines; for IC50: Homo sapiens, bound valid for all six cancer cell lines, neutral red assay.
Source text: as §1
as §2, with “lysosomes. The procedure is cheaper and more sensitive than other cytotoxicity tests.” for “lysosomes.”

Series [9] is described as follows: Neutral red (NR) uptake cytotoxicity assay, Caco-2. The series is classed as cell-based, human. The conditions noted are these: human; IC50 in CRL2120 normal fibroblasts divided by IC50 in Caco-2; read-out: selectivity index Caco-2 (converted).
Source text: as §1
as §2, with “lysosomes. The procedure is cheaper and more sensitive than other cytotoxicity tests.” for “lysosomes.”

Where only a bound is given, the exact number is not on record here.

With `Cc1cc(O)c2c(c1)C(=O)c1cccc(O)c1C2=O` [Compound 1, chrysophanol], the IC50 (in general, the midpoint of a concentration-inhibition curve) was 52.2 ± 5.51 µM in series [1] (Homo sapiens, A549, 72 h); 146 ± 10.6 µM in series [2]; over 157 µM in series [3]; over 157 µM in series [4]; over 157 µM in series [5]; over 157 µM in series [6]. The compound also had an IC50 in [7] of over 157 µM. Also, the “selectivity index A549” value in series [1] is over 3.01. The “selectivity index SPC212” value in series [2] was over 1.08. Moreover, the “tested cancer cell lines in which recordable IC50 values were obtained” value (“tested cancer cell lines” for short) in series [8] is given as 2/6.
Take `Cc1cc(O)c2c(c1)C(=O)c1cc(O)cc(O)c1C2=O` [Compound 2, emodin]: the 50% inhibitory concentration (IC50) was 99.3 µM in [1] (Homo sapiens, A549, 72 h); 66.3 ± 6.19 µM in series [1]; 99.3 ± 8.46 µM in [2]; 77.3 ± 8.77 µM in series [3]; 73.6 ± 3.52 µM in series [4]; 37.6 ± 2.59 µM in series [5]. The half-inhibitory concentration (IC50) in series [6] is 71.7 ± 4.52 µM; in series [7], over 148 µM; in series [8], under 100 µM. In addition, the “selectivity index A549” value in series [1] is given as over 2.23. In series [2], the “selectivity index SPC212” value is over 1.49. Also, in series [3], the “selectivity index DLD-1” value is over 1.92. For the same compound, the selectivity ratio at 72 h in series [9] was over 2.01. Also, the “selectivity index MCF-7” value in series [5] is recorded as over 3.94. Further, in series [6], the “selectivity index HepG2” value was over 2.07. The “selectivity indexes (CRL2120 vs carcinoma cells), lower bound over the cancer cell lines” value in series [8] (IC50 CRL2120 / IC50 cancer cell line) is recorded as “above 1.49”.
Turning to `COC(=O)c1c(O)cc2c(c1C)C(=O)c1c(O)cc(O)cc1C2=O` [Compound 3, 3,6,8-trihydroxy-1-methylanthraquinone-2-carboxylic acid methyl ester], the IC50 in [1] (Homo sapiens, A549, 72 h) is over 122 µM; in series [2], over 122 µM; in [3], over 122 µM; in series [4], over 122 µM; in series [5], over 122 µM; in series [6], over 122 µM. Further, the IC50 in series [7] is over 122 µM; in series [8], over 120 µM.
On to `CCC1=C(O)C(=O)C=C(O)C1=O` [Compound 5, 2,5-dihydroxy-3-ethyl-2,5-cyclohexadiene-1,4-dione], for which the IC50 in series [1] (Homo sapiens, A549, 72 h) was over 238 µM; in series [2], over 238 µM; in [3], over 238 µM; in [4], over 238 µM; in series [5], over 238 µM; in [6], over 238 µM. Besides, the results for the IC50 in series [7] and in series [8] were 95.5 ± 5.64 µM and over 120 µM, respectively.
For `CCCC1=C(O)C(=O)C=C(O)C1=O` [Compound 6, 2,5-dihydroxy-3-propyl-2,5-cyclohexadiene-1,4-dione], the IC50 in [1] (Homo sapiens, A549, 72 h) is over 222 µM; in series [2] it was over 222 µM; in series [3], over 222 µM; in [4], over 222 µM; in [5], 162 ± 11.4 µM; in series [6], over 222 µM. In addition, the IC50 in series [7] is over 222 µM. Moreover, the “tested cancer cell lines” value in [8] is recorded as 1/6.
Regarding `CCCCC1=C(O)C(=O)C=C(O)C1=O` [Compound 7, 2,5-dihydroxy-3-butyl-2,5-cyclohexadiene-1,4-dione], the IC50 in [1] (Homo sapiens, A549, 72 h) is 68.6 ± 7.55 µM; in [2] it was 87.9 ± 5.66 µM; in series [3], over 204 µM; in series [4] it was 89.7 ± 8.8 µM; in series [5], 64.6 ± 13.4 µM; in series [6] it was 176 ± 28.5 µM. In addition, in series [7], the IC50 is over 204 µM. In addition, the “selectivity index A549” value in [1] is on record as over 2.97. For the same compound, the “selectivity index SPC212” value in series [2] is recorded as over 2.32. Further, the selectivity ratio at 72 h in series [9] was over 2.27. Moreover, in series [5], the “selectivity index MCF-7” value is over 3.16. In addition, in series [6], the “selectivity index HepG2” value is listed as over 1.16. Besides, the “tested cancer cell lines” value in series [8] is listed as 5/6.
`CCCCCCCC1=C(O)C(=O)C=C(O)C1=O` [Compound 8, 2,5-dihydroxy-3-heptyl-2,5-cyclohexadiene-1,4-dione]: the IC50 in series [1] (Homo sapiens, A549, 72 h) is 108 ± 17.9 µM; in series [2] it was under 10 µM; in series [3], over 168 µM; in series [4], 63.9 ± 5.97 µM; in [5], 38.8 ± 3.33 µM; in [6], 94.2 ± 2.7 µM. Also, half-maximal inhibition in series [7] (IC50) required 117 ± 1.22 µM. Further, the selectivity ratio at 72 h in series [9] is 2.27. Further, the “selectivity index MCF-7” value in series [5] turned out to be 3.16. Further, the “selectivity index HepG2” value in series [6] is listed as 1.16. Further, the “tested cancer cell lines” value in [8] is on record as 5/6.
Consider `CCCCC=CCCCCCCCCCCCCCC1=C(OC)C(=O)C=C(OC)C1=O` [Compound 12, 2,5 dimethoxy-6-(14-nonadecenyl)-1,4-benzoquinone], for which the IC50 is over 129 µM in series [1] (Homo sapiens, A549, 72 h); over 129 µM in series [2]; over 129 µM in series [3]; over 129 µM in series [4]; over 129 µM in series [5]; over 129 µM in series [6]. The 50% inhibitory concentration (IC50) was over 129 µM in series [7] and over 120 µM in series [8].
On to `COC1=CC(=O)C(O)=C(CCCCCCCC=CCCCCCCCC2=C(O)C(=O)C(C)=C(O)C2=O)C1=O` [Compound 14, ardisiaquinone B], for which the IC50 is 21.7 ± 1.5 µM in series [1] (Homo sapiens, A549, 72 h); 3.14 ± 0.78 µM in series [2]; 114 ± 3.68 µM in series [3]; over 123 µM in series [4]; over 123 µM in series [5]; 115 ± 4.29 µM in series [6]. For the same compound, the IC50 in series [7] is 71.3 ± 5.23 µM. Besides, the “selectivity index A549” value in series [1] was 3.29. In addition, the “selectivity index SPC212” value in series [2] is 22.72. The “selectivity index DLD-1” value in series [3] is 0.62. In addition, in series [6], the “selectivity index HepG2” value is on record as 0.62. The “tested cancer cell lines” value in [8] was 4/6.
